Read-outs that look alike come from different tables or passages of the source.
Legend:
[1] = test system: P. falciparum (NF54 or 3D7 strain); experiment: P. falciparum proliferation assay in infected human blood cells (SYBR Green); assay type: cell-based; conditions: Plasmodium falciparum, Erythrocyte, read-out: EC50 (nM), inhibitory efficacy in delaying P. falciparum proliferation in infected human blood cells
Procedure: Assay for P. falciparum Proliferation in Infected Human Blood Cells
Compounds of the invention can be assayed to measure their capacity to inhibit proliferation of P. falciparum parasitemia in infected red blood cells. This parasite proliferation assay measures the increase in parasite DNA content using a DNA intercalating dye, SYBR Green® (INVITROGEN®) which has a high affinity for double stranded DNA.
NF54 or 3D7 P. falciparum strain is grown in complete culturing media until parasitemia reaches 3% to 8% with O+ human erythrocytes. […] 20 μl of screening media is dispensed into 384 well assay plates. 50 nl of compounds of the invention (in DMSO), including antimalarial controls (mefloquine, pyrimethamine and artemisinin), are then transferred into the assay plates, as well as DMSO alone to serve as a negative control for inhibition. Then 30 μl of a suspension of a NF54 or 3D7 P. falciparum infected erythrocytes in screening media is dispensed into the assay plates such that the final hematocrit is 2.5% with a final parasitemia of 0.3%. The plates are placed in a 37° C. incubator for 72 hours in a low oxygen environment containing 93% N2, 4% CO2, and 3% O2 gas mixture. 10 μl of lysis buffer (saponin, triton-X, EDTA) containing a 10× solution of SYBR Green I® in RPMI media is dispensed into the plates. The plates are lidded and kept at room temperature overnight for the lysis of the infected red blood cells. The fluorescence intensity is measured (excitation 425 nm, emission 530 nm) using the Envision™ system (Perkin Elmer). The percentage inhibition of 50%, EC50, is calculated for each compound.

[2] = test system: Plasmodium berghei line expressing luciferase (Pb-luc) sporozoites; experiment: Liver stage P. berghei luciferase proliferation assay in CD81-GFP-HepG2 cells; assay type: cell-based; conditions: values marked * in Table 2, CD81-GFP-HepG2 cells, 48 h, luminescence, read-out: EC50 (nM), P. berghei luciferase Proliferation Assay
Procedure: Liver Stage P. berghei Luciferase Proliferation Assay
CD81-GFP-HepG2 cells (obtained from the lab of Dominique Mazier) were seeded into GNF custom Greiner plates (1536-well, white, TC-treated, solid bottom). A final density of 3000 cells/well was achieved by dispensing 5 ul per well of a 600,000 cells/mL resuspended in Assay Media (AM; phenol-red free DMEM, 2% FBS, 5×PSG) via a MicroFlo (Biotek; 5 ul dispense cassette). The seeded assay plates were incubated overnight at 37° C. in an incubator with 5% CO2. The following day, a 10 nL volume of compound was transferred acoustically (ECHO 525, Labcyte Inc.) to each well in the assay plate. Sporozoite forms of a Plasmodium berghei line expressing luciferase (Pb-luc) were dissected and purified from infected Anopheles stephensi mosquitoes (provided by the NYU insectary) as previously described by Meister et al. (Science, 2011). Purified sporozoites (spz) were stored at 250 spz/uL in chilled PBS supplemented with 3% BSA. 3 uL of Pb-luc spz solution was dispensed to each assay well using a Bottlevalve equipped with a custom, single-tip dispense head (GNF Systems). Assay plates were centrifuged at 330×g for 3 minutes to pellet the spz, then the assay plates were returned to the 37° C. incubator for 48 h. Luciferase signal, which corresponds with parasite proliferation, was detected by adding 2 uL of BrightGlo (Promega) to each well using the MicroFlo (Biotek; 1 ul cassette). Luminescence was immediately measured on an Envision MultiLabel Plate Reader (PerkinElmer).

[3] = infected human erythrocytes, 72 hours, SYBR Green fluorescence

Row | SMILES | EC50 [1, 3] [nM] | EC50 [2] [nM] | EC50 ([1]; 72 h) [nM]
1 | CNC(=O)c1ccc(-c2cnn3ccc(C(=O)N(c4ccc(C#N)cc4)C(C)C)cc23)cn1 [Example 146, N-(4-Cyanophenyl)-N-isopropyl-3-(6-(methylcarbamoyl)pyridin-3-yl)pyrazolo[1,5-a]pyridine-5-carboxamide] | 45 | 20 | 
2 | CNC(=O)c1ccc(-c2cnn3ccc(N(C(=O)c4ccc(C#N)cn4)C4CC4)cc23)cc1 [Example 147, 5-Cyano-N-cyclopropyl-N-(3-(4-(methylcarbamoyl)phenyl)pyrazolo[1,5-a]pyridin-5-yl) picolinamide] | 814 | 151 | 
3 | CNC(=O)c1ccc(-c2cnn3ccc(C(=O)N(c4ccc(C#N)cn4)C(C)C)cc23)cn1 [Example 148, N-(5-Cyanopyridin-2-yl)-N-isopropyl-3-(6-(methylcarbamoyl)pyridin-3-yl)pyrazolo[1,5-a]pyridine-5-carboxamide] | 67 | 18 | 
4 | CNC(=O)c1ccc(-c2cnn3ccc(C(=O)N(c4ccc(C#N)c(OC)n4)C4CC4)cc23)cc1 [Example 149, N-(5-Cyano-6-methoxypyridin-2-yl)-N-cyclopropyl-3-(4-(methylcarbamoyl)phenyl)pyrazolo[1,5-a]pyridine-5-carboxamide] | 4 | 1 | 
5 | CCN(C(=O)c1ccn2ncc(-c3ccc(C(=O)NC)nc3)c2c1)c1ccc(C#N)cn1 [Example 150, N-(5-cyanopyridin-2-yl)-N-ethyl-3-(6-[methylcarbamoyl]pyridin-3-yl)pyrazolo[1,5-a]pyridine-5-carboxamide] | 51 | 19 | 
6 | CNC(=O)c1ccc(-c2cnn3ccc(C(=O)N(c4ccc(F)cn4)C(C)C)cc23)cc1 [Example 151, N-(5-fluoropyridin-2-yl)-N-isopropyl-3-(4-(methylcarbamoyl)phenyl)pyrazolo[1,5-a]pyridine-5-carboxamide] | 67 | 7 | 
7 | CNC(=O)c1ccc(-c2cnn3ccc(C(=O)N(c4ccc(C(F)(F)F)cn4)C(C)C)cc23)cn1 [Example 152, N-Isopropyl-3-(6-(methylcarbamoyl)pyridin-3-yl)-N-(5-(trifluoromethyl)pyridin-2-yl)pyrazolo[1,5-a]pyridine-5-carboxamide] | 228 | 182 | 
8 | CNC(=O)c1ccc(-c2cnn3ccc(C(=O)N(c4ccc(C(F)(F)F)cn4)C(C)C)cc23)cc1 [Example 153, N-Isopropyl-3-(4-(methylcarbamoyl)phenyl)-N-(5-(trifluoromethyl)pyridin-2-yl)pyrazolo[1,5-a]pyridine-5-carboxamide] | 88 | 16 | 
9 | CNC(=O)c1ccc(-c2cnn3ccc(C(=O)N(c4ccc(C#N)cn4)C(C)C)cc23)nc1 [Example 154, N-(5-cyanopyridin-2-yl)-N-isopropyl-3-(5-(methylcarbamoyl)pyridin-2-yl)pyrazolo[1,5-a]pyridine-5-carboxamide] |  | 36 | 200
10 | CNC(=O)c1ccc(-c2cnn3ccc(C(=O)N(c4ccc(C#N)cn4)C4CCC4)cc23)nc1 [Example 155, N-(5-Cyanopyridin-2-yl)-N-cyclobutyl-3-(5-(methylcarbamoyl)pyridin-2-yl)pyrazolo[1,5-a]pyridine-5-carboxamide] |  | 21 | 82
11 | CNC(=O)c1ccc(-c2cnn3ccc(C(=O)N(c4ccc(F)cn4)C(C)C)cc23)cn1 [Example 156, N-(5-fluoropyridin-2-yl)-N-isopropyl-3-(6-(methylcarbamoyl)pyridin-3-yl)pyrazolo[1,5-a]pyridine-5-carboxamide] | 210 | 54 | 
12 | CCN(C(=O)c1ccn2ncc(-c3ccc(C(=O)NC)nc3)c2c1)c1ccc(C(F)(F)F)cn1 [Example 157, N-ethyl-3-(6-(methylcarbamoyl)pyridin-3-yl)-N-(5-(trifluoromethyl)pyridin-2-yl)pyrazolo[1,5-a]pyridine-5-carboxamide] | 91 | 60 | 
13 | CCN(C(=O)c1ccn2ncc(-c3ccc(S(C)(=O)=O)cc3)c2c1)c1ccc(C#N)cn1 [Example 158, N-(5-cyanopyridin-2-yl)-N-ethyl-3-(4-(methylsulfonyl)phenyl)pyrazolo[1,5-a]pyridine-5-carboxamide] | 111 | 11 | 
14 | CCN(C(=O)c1ccn2ncc(-c3ccc(C(=O)NC)nc3)c2c1)c1ccc(F)cn1 [Example 159, N-ethyl-N-(5-fluoropyridin-2-yl)-3-(6-(methylcarbamoyl)pyridin-3-yl)pyrazolo[1,5-a]pyridine-5-carboxamide] | 56 | 43 | 
15 | CNC(=O)c1ccc(-c2cnn3ccc(C(=O)N(c4ccc(C(F)(F)F)cn4)C4CCC4)cc23)cc1 [Example 160, N-cyclobutyl-3-(4-(methylcarbamoyl)phenyl)-N-(5-(trifluoromethyl)pyridin-2-yl)pyrazolo[1,5-a]pyridine-5-carboxamide] | 4 | 4 | 
16 | CNC(=O)c1ccc(-c2cnn3ccc(C(=O)N(c4ccc(C(F)(F)F)cn4)C4CCC4)cc23)cn1 [Example 161, N N-cyclobutyl-3-(6-(methylcarbamoyl)pyridin-3-yl)-N-(5-(trifluoromethyl)pyridin-2-yl)pyrazolo[1,5-a]pyridine-5-carboxamide] | 68 | 41 | 
17 | CCN(C(=O)c1ccn2ncc(-c3ccc(C(=O)NC)cc3)c2c1)c1ccc(C#N)c(OCCO)n1 [Example 162, N-(5-cyano-6-(2-hydroxyethoxyl)pyridin-2-yl)-N-ethyl-3-(4-(methylcarbamoyl)phenyl)pyrazolo[1,5-a]pyridine-5-carboxamide] | 9 | 8 | 
18 | CNC(=O)c1ccc(-c2cnn3ccc(S(=O)(=O)N(C)c4ccc(C#N)cn4)cc23)cc1 [Example 163, 4-(5-(N-(5-Cyanopyridin-2-yl)-N-methylsulfamoyl)pyrazolo[1,5-a]pyridin-3-yl)-N-methyl benzamide] | 4 | 2 | 

— patent publication US9556169B2, “Compounds and compositions for the treatment of parasitic diseases” (NOVARTIS AG, priority 2012, dated 2017)
